Laboratory results from patent US10343971B2, “Crotonates having use in perfumery” (GIVAUDAN SA, priority 2016, dated 2019).

Columns and labels:
[1] = test system: KeratinoSens cell line (Luciferase gene under the control of the ARE-element of the gene AKR1C2); assay: KeratinoSens assay for skin sensitization: luciferase gene induction; assay type: cell-based; conditions: for Concentration for 1.5-fold gene induction (EC 1.5 in μM) / Imax (fold maximal gene induction): 48 h incubation, 0.98 to 2000 μM; for Imax (fold maximal gene induction): threshold 1.5-fold; for rating of skin sensitization by the KeratinoSens assay: result in words
Protocol: Compounds were tested using the commercial KeratinoSens™ assay for skin sensitization.
(§1) The KeratinoSens™ test compares the potential skin sensitization risk of chemicals. The KeratinoSens™ cell line contains a stable insertion of a Luciferase gene under the control of the ARE-element of the gene AKR1C2 and induction of luciferase is indicative of skin sensitization potential (R. Emter, G. Ellis, A. Natsch, Toxicol. Appl. Pharmacol. 2010, 245, 281-290). The assay was performed as described by the OECD test guideline 442d. KeratinoSens cells were grown for 24 h in 96-well plates. The medium was then replaced with medium containing the test chemical and the solvent dimethylsulfoxide (DMSO) at a final level of 1%. Each compound was tested at 12 binary dilutions in the range from 0.98 to 2000 μM. Cells were incubated for 48 h with the test agents, and then luciferase activity and cytotoxicity were determined. This full procedure was repeated three times for each chemical. For each chemical in each repetition and at each concentration, the gene induction compared to DMSO controls and the wells with statistically significant induction over the threshold of 1.5 (i.e. 50% enhanced gene activity) were determined. Furthermore, the maximal fold-induction (Imax) and the EC1.5 value (concentration in μM for induction above the threshold) were calculated. Chemicals are rated as positive (i.e. likely skin-sensitizers) in the assay if the following three criteria are fulfilled:
(i) EC1.5 value is below 1000 μM.
(ii) At the lowest concentration with a gene induction above 1.5 fold, the cellular viability is above 70%.
(iii) There is an apparent overall dose-response for luciferase induction, which is similar between the repetitions.

KeratinoSens cells = assay: KeratinoSens assay: cytotoxicity / cellular viability; assay type: cell-based; conditions: 48 h incubation; read-out: Concentration for 50% Cytotoxicity
Protocol: as §1, with “fulfilled: […]” for “fulfilled:”

[2] = Enzymatic hydrolysis (stability) in human liver S9 fractions; assay type: in vitro ADME; conditions: 100 μM compound, human liver S9 0.166 mg/ml, phosphate buffer pH 7.4, active S9 fractions
Protocol: Enzymes of the nasal cavity are not easily available, but the nasal cavity contains similar enzymatic activities as found in the liver, namely carboxylesterases (J. L. Lewis, K. J. Nikula, R. Novak, A. R. Dahl, Anat Rec 1994, 239). Therefore the different compounds of examples 1-3 were compared for enzymatic hydrolysis using human liver […]. Chemicals were dissolved to a final concentration of 100 μM in a total volume of 600 μl of phosphate buffer (100 mM, pH 7.4, containing 1.15% potassium chloride and 1 mM of EDTA). S9 fractions from humans at a final level of 0.166 mg/ml were added (Corning® Gentest™ Human Liver S9 Pooled Donors, 20 mg/mL protein content, Product #452961;), Lot 22877,). As control experiment, equal levels of heat inactivated S9 fractions (incubated for 10 min at 99° C.) were added to parallel samples. The samples were incubated for different time periods and then mixed in 2 ml glass vials with 300 μl of Methyl-tert-butylether (MTBE) containing as internal standard 1 ppm of dodecane. Samples were extracted on a vortex mixer for 20 s, and then ca. 200 μl of the supernatant was transferred to conical GC vials and concentrated under a stream of nitrogen. 1 μl of these concentrated extracts were then injected with a splitless injection into an Agilent GC 6890N gas chromatograph equipped with a flame-ionisation detector. The following GC conditions were applied: Column: Rtx −5; 30 m length×0.32 mm internal diameter×0.25 μm film thickness; Carrier gas: Hydrogen; Column flow: 2 mL; Initial temperature of 60° C. held for 2 min, subsequent linear gradient with 10° C. per minute up to a temperature of 240° C. […] To determine calibration curves, dilutions of the test chemicals or of the potentially released alcohols were added to heat inactivated S9 fraction and extracted, concentrated and analysed as described above. All concentrations (in test samples and calibration curves) were determined by normalization to the internal standard. […]

[3] = KeratinoSens assay: cytotoxicity / cellular viability; assay type: cell-based; conditions: human; 48 h incubation; read-out: Concentration for 50% Cytotoxicity
Protocol: as §1, with “fulfilled: […]” for “fulfilled:”

[4] = test system: test peptide Cor1C-420 (Ac-NKKCDLF); assay: Peptide reactivity assay (kinetic variant of DPRA, LC-MS); conditions: 1 mM test chemical, 0.1 mM peptide, 37° C.
Protocol: A second method to determine allergenic potential of chemicals is the DPRA direct peptide assay (OECD TG 442c). It is based on the fact that allergenic chemicals must react with a peptide/protein in order to be immunogenic.
A peptide reactivity assay (A. Natsch, H. Gfeller, Toxicol. Sci. 2008, 106, 464-478) was conducted similarly to the DPRA assay, but including a kinetic measurement to quantify reactivity: The test chemicals were dissolved to a final concentration of 4 mM in acetonitrile and 250 μl of this solution were added to 2 ml HPLC vials. The test peptide Cor1C-420 with the sequence Ac-NKKCDLF (Genscript Inc., Piscataway, N.J., USA), was dissolved at 0.133 mM in 20 mM phosphate buffer at pH 7.5, and 750 μl of this solution were added to each test vial (final concentrations: 1 mM of test chemical and 0.1 mM of peptide in 25% acetonitrile; ratio 1:10 as in the DPRA assay). The samples were incubated for 1-24 h at 37° C. and at regular intervals they were analysed by LC-MS analysis on a VELOS PRO Mass spectrometer (Thermo SCIENTIFIC, San Jose, Calif., U.S.A.) operated in the ESI(+) mode.
Mass spectra were recorded from 200-2000 amu. […]
Two endpoints are measured with this assay:
a) Depletion of the parent peptide (FIG. 3): The mass of the protonated parent peptide is measured and the corresponding peak integrated (% depletion). […]

Row | SMILES | concentration at which the luciferase gene is induced [1] [µM] | Concentration for 1.5-fold gene induction (EC 1.5 in μM) [1] | Imax (fold maximal gene induction) [1] [fold] | rating of skin sensitization by the KeratinoSens assay [1] | IC50 (KeratinoSens cells) [µM] | cleavage (enzymatic hydrolysis of the ester) by active S9 fractions [2] | IC50 at 48 h [3] [µM] | peptide depletion (consumption of the parent peptide as compared to controls) ([4]; 1-24 h) [%] | lower levels of peptide adducts as compared to Damascone Delta and Damascone gamma ([4]; after 1 h)
1 | C/C=C/C(=O)C1=C(C)CCCC1(C)C [β-Damascone, (2E)-1-(2′,6′,6′-trimethylcyclohex-1′-en-1′-yl)but-2-en-1-one, reference compound] | 4.5 | 4.5 µM | 29.8 | significantly sensitizing compound | 56.7 | – | – | – | –
2 | C/C=C/C(=O)OC1[C@H](C)CCC[C@H]1C (relative stereo) [Example 2, (2R*,6R*)-2,6-dimethylcyclohexyl (E)-but-2-enoate] | – | – | – | – | – | completely hydrolysed | – | – | –
3 | C/C=C/C(=O)O[C@@H]1[C@H](C)CCC[C@@H]1C [Example 1, (1s*,2R*,6S*)-2,6-dimethylcyclohexyl (E)-but-2-enoate] | – | No induction | – | non-sensitizing | – | < 3% | 86.9 | < 10 | > 100
4 | C/C=C/C(=O)O[C@H]1[C@H](C)CCC[C@@H]1C [Example 3, (1r*,2R*,6S*)-2,6-dimethylcyclohexyl (E)-but-2-enoate] | – | – | – | – | – | 15% | – | – | –
5 | C/C=C/C(=O)O[C@H]1[C@@H](C)C=CCC1(C)C (relative stereo) [Example 6a, (1S*,2S*)-2,6,6-Trimethylcyclohex-3-en-1-yl (E)-but-2-enoate] | – | No induction | 1.13 | – | – | – | 89.4 | – | –
